Values of other authors, collected in patent publication US9782362B2, “Uses of compositions containing a roasted extract and xanthohumol” (TA-XAN AG, priority 2012, dated 2017).
Like-named read-outs stand apart in the source and are kept apart here.

Columns and labels:
[1] = 100 mg/kg/day in drinking water for four weeks, then mated
[2] = test system: bone-resorbing cells (osteoclasts); settings: in vitro
[3] = test system: angiogenesis; settings: approx. 1 mg/kg per day three days per os; 4-6 mg/kg per day 60 days drinking water; or 1000 mg/kg subcutaneously
[4] = test system: human Kaposi's sarcoma (KS-IMM) cells; settings: approx. 1.2 mg/kg for 23 days
[5] = test system: Human breast tumor cells (MXF7 cells); settings: daily dose of 4-6 mg/kg in the drinking water; not validated statistically at the 95% level
[6] = rat
[7] = mice
[8] = test system: bacterial culture; settings: depending on doses ranging between 0.01 to 10 μM
[9] = up to 100 mg/kg/day per os, 4 weeks
[10] = test system: Diacylglycerol acetyltransferase (DGAT); settings: in vitro
[11] = test system: Human breast tumor cells (MX-1 cells); settings: daily subcutaneous 1000 mg/kg
[12] = test system: Estrogen; settings: oral three×100 mg/kg over three days
[13] = 4 weeks, female C3H-mice
[14] = test system: inflammation; settings: oral 4-6 mg/kg per day for 60 days in drinking water
[15] = direct chemical interaction
[16] = test system: apoptosis; settings: 4-6 mg/kg per day for 60 days in the drinking water
[17] = test system: Cells in culture or rat liver; settings: depending on doses ranging between 0.01 to 10 μM

COc1cc(O)c(CC=C(C)C)c(O)c1C(=O)/C=C/c1ccc(O)cc1 [xanthohumol]
influence on fertility or lactation [1]: Neither the pre-treatment of the female animals nor of the males had any influence | inhibition of the resorption of bone ([2]; 1 μM): 35% | inhibition of the resorption of bone ([2]; 10 μM): 94% | anti-angiogenetic action [3]: anti-angiogenetic action | growth of the tumor inhibited [4]: 68% | toxic effects (daily for 4 weeks: 100 mg/kg drinking water, 500 mg/kg in feed, 1000 mg/kg pharyngeal tube): no toxic effects whatsoever could be determined | weight of the liver (high-dose groups (500 mg/kg/day and 1000 mg/kg/day), due to breakdown of glycogen): reduction in the weight of the liver | growth of the tumor inhibited [5]: 35% | absorption following oral application [6]: poorly absorbed | state in the excrement ([6]; oral): largely unchanged | plasma glucose level [7]: reduction | triglycerides [7]: reduction | inhibition of mutagenic damage [8]: up to 100% | toxicity [9]: no indication of toxicity | DGAT inhibition [10]: inhibition of this enzyme | growth of the tumor inhibited ([11]; in one week): 46% | growth of the tumor inhibited ([11]; in two weeks): 83% | anti-estrogen action [12]: possible to detect anti-estrogen action | development of weight, appearance of organs, haematologically clinical parameters, liver enzyme values, glucose metabolism ([13]; approximately 28 mg/kg/day in drinking water): uninfluenced | impact on health ([13]; drinking water 5×10^−4M ad libitum, approximately 28 mg/kg/day): no unfavorable impact | effect on inflammation [14]: inhibitive effect on inflammation was also established in vivo | interception of DPPH radical [15]: not able to intercept | induction of apoptosis [16]: could be detected | inhibition of DNA damage [17]: up to 100%
